From patent US10369186B2, “Method of treating decline in brain function comprising coadministration of citrulline and glutathione” (KYOWA HAKKO BIO CO., LTD., priority 2012, dated 2019)

Experiments:
C57BL/6J mice [1] = assay: Y-maze test (spontaneous alternation behavior) after bilateral common carotid arteries occlusion; format: in vivo; settings: oral, 7 days, FIG. 1
Protocol: (§1) Experimental Example: 10-week-old male C57BL/6J mice (CLEA Japan, Inc. approximately 25 g of average body weight per mouse) were preliminarily acclimated for 1 week, and provided for experiments. Citrulline and glutathione were obtained from KYOWA HAKKO BIO CO., LTD.
(§2) C57BL/6J mice were divided into a sham-operation group (Group 1) and a bilateral common carotid arteries occlusion group, which was performed under halothane anesthesia for 20 minutes. One day after reperfusion, the bilateral common carotid arteries occlusion group was further divided into a distilled water-treated group (Group 2), a low-dose citrulline-treated group (40 mg/kg: Group 3), a low-dose glutathione-treated group (40 mg/kg: Group 4), a high-dose citrulline-treated group (100 mg/kg: Group 5), a high-dose glutathione-treated group (100 mg/kg: Group 6), and a combination treatment group of a low dose of citrulline and a low dose of glutathione (each 40 mg/kg: Group 7). Each sample was orally administered for 12 days. One week after starting administration, learning memory-improving effects were examined by a Y-maze test, a passive avoidance test, and a novel object recognition test. After evaluating learning memory functions, the hippocampus was removed and viability of hippocampal nerve cells was evaluated.
In the Y-maze test, a Y-maze apparatus with three arms (50×16×32 cm) was used. Mice were placed at any one arm of the Y-maze and were allowed to explore freely through the maze for 8 minutes. The sequence of arm entries was recorded. The number of entries into each arm was counted during the measurement time, which was defined as the total number of entries. Of them, the successive entry into the three different arms was examined, and this number was defined as the spontaneous alternation behavior number. The spontaneous alternation behavior number was divided by (the total number of arm entries minus two), and then multiplied by 100, which was defined as the spontaneous alternation behavior rate (Alternation) and used as an index for spontaneous alternation behavior.

C57BL/6J mice [2] = assay: Passive avoidance test after bilateral common carotid arteries occlusion; format: in vivo; settings: oral, 7 days, FIG. 2
Protocol: as §1, §2
The passive avoidance test was performed using a box consisting of dark (25×25×25 cm) and light compartments (14×10×25 cm) and being equipped with an electrical stimulation apparatus at the bottom of the dark compartment. During training, as soon as the mouse entered the dark compartment from the light compartment, the door was closed, and an electrical stimulation (0.3 mA, for 2 seconds) was delivered. Twenty four hours after training, the mouse was placed again in the light compartment, and the latency time spent in the light compartment was recorded with a maximum latency of 300 seconds.

C57BL/6J mice [3] = assay: Novel object recognition test after bilateral common carotid arteries occlusion; format: in vivo; settings: oral, 7 days, FIG. 3
Protocol: as §1, §2
The novel object recognition test was performed after mice were individually acclimated to the open field apparatus (35×25×35 cm) for 2 days. During training, mice were allowed to explore freely for 10 minutes in an apparatus where two identical objects were symmetrically placed. After 1 hour, one object was replaced by a novel object, and mice were allowed to explore freely for 5 minutes. Object exploration was defined as standing on the objects, touching the object with the nose, or sniffing the object within 1 cm from the object. A ratio of the frequency of exploring the familiar or novel object over the total exploration frequency was calculated, and used as an index for visual recognition memory.

hippocampal nerve cells = assay: Evaluation of viability of hippocampal nerve cells after bilateral common carotid arteries occlusion; format: in vivo, mice; settings: oral, 12 days, CA1 pyramidal cell layer, FIG. 4
Protocol: as §1, §2
Twelve days after bilateral occlusion of the common carotid arteries, mice were anesthetized with pentobarbital sodium, and perfused with ice-cold phosphate buffer (PBS, pH 7.4) until the blood in the body was completely removed. Immediately, mice were perfused with a fixative solution containing 4% paraformaldehyde. The brain tissues were fixed at 4° C. for 24 hours, and coronal sections having a thickness of 50 μm were prepared. Serial sections containing the hippocampus were stained with propidium iodide (PI, 5 μmol/L) dissolved in PBS and observed under a fluorescent microscope. Surviving and non-surviving nerve cells in the CA1 pyramidal cell layer of the hippocampus were counted at 1.4 to 1.8 mm posterior to bregma, and cells with PI-positive nuclei and typical morphological characteristics were defined as […]. The cell viability was calculated from a ratio to the average number of surviving nerve cells in Group 1.

[4] = high dose 100 mg/kg alone (Group 5 citrulline, Group 6 glutathione)
[5] = low dose 40 mg/kg alone (Group 3 citrulline, Group 4 glutathione), vs distilled water Group 2
[6] = low dose 40 mg/kg alone (Group 3 citrulline, Group 4 glutathione), vs Group 2
[7] = low dose 40 mg/kg alone (Group 3 citrulline, Group 4 glutathione)

Compound	spontaneous alternation behavior rate (Alternation) (C57BL/6J mice [1]; [4])	spontaneous alternation behavior rate (Alternation) (C57BL/6J mice [1]; [5])	time spent in the light compartment (Latency time) (C57BL/6J mice [2]; [4])	time spent in the light compartment (Latency time) (C57BL/6J mice [2]; [6])	frequency of exploring the novel object (C57BL/6J mice [3]; [4])	frequency of exploring the novel object (C57BL/6J mice [3]; [7])	viability of hippocampal nerve cells (hippocampal nerve cells; [4])	viability of hippocampal nerve cells (hippocampal nerve cells; [6])
N[C@@H](CCC(=O)N[C@@H](CS)C(=O)NCC(=O)O)C(=O)O [glutathione]	remarkably improved effect of memory behavior	Alternation cannot be improved	remarkably improved effect of memory behavior	latency time cannot be improved	remarkably improved effect of memory behavior	frequency of exploring the novel object cannot be increased	nerve cell-protecting effect	viability of hippocampal nerve cells cannot be improved
NC(=O)NCCC[C@H](N)C(=O)O [citrulline]	remarkably improved effect of memory behavior	Alternation cannot be improved	remarkably improved effect of memory behavior	latency time cannot be improved	remarkably improved effect of memory behavior	frequency of exploring the novel object cannot be increased	nerve cell-protecting effect	viability of hippocampal nerve cells cannot be improved
